From patent US7741493B2, “Heterocyclic compounds as P2X7 ion channel blockers” (Aventis Pharmaceuticals Inc., priority 2003, dated 2010)
“And” between values parts separate entries of the source, which are not always exact repeats. Equal entries are not always repeated. Structures can show the parent of a compound that is named as a salt.

Target: T1, P2X7 (Homo sapiens, UniProt Q99572)
T1 sequence (Q99572 1-595): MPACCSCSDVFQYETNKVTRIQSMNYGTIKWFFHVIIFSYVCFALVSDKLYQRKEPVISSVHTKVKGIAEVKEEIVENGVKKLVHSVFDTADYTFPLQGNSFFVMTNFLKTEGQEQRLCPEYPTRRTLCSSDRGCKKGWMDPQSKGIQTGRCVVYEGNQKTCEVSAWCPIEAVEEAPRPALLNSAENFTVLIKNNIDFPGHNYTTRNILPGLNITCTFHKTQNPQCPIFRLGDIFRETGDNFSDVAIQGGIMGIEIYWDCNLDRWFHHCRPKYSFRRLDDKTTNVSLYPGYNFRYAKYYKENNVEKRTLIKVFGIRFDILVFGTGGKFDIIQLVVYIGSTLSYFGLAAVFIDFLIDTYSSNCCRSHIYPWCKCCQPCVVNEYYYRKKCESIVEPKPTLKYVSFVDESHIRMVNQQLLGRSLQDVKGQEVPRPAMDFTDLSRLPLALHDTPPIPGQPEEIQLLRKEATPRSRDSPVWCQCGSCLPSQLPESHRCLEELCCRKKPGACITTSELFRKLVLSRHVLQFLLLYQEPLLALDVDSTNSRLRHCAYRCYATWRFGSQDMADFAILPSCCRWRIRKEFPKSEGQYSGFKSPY
Assay: YO-PRO-1 dye uptake assay in U373 cells stably expressing P2X7
Format: cell-based
Design: The complete open reading frame of human P2X7 was amplified from Incyte clone 148057; expressed in transfected cells
Details: IC50 (nM), dye uptake through P2X7, U373 cells, 300 μM BzATP, 5 μM YO-PRO-1, test compounds 30 nM to 3 μM
Summary of the method: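 U373 cells stably expressing human P2X7 preincubated 20 min at 37° C. with compound (30 nM to 3 μM) in Mg/Ca-free HBSS. YO-PRO-1 (5 μM final) and BzATP (300 μM final) then added for 1.5 h at 37° C.; dye-uptake fluorescence compared with compound-free control.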

Q: `Cc1ccccc1CC1=N[C@H](c2ccccc2)[C@H](c2ccccc2)N1` [cis-4,5-diphenyl-2-(2-methylbenzyl)-4,5-dihydro-1H-imidazole] was tested. Which IC50 did it give?
A: The IC50 was 321 nM.

Q: `c1ccc(CCC2=N[C@H](c3ccccc3)[C@H](c3ccccc3)N2)cc1` [cis-4,5-diphenyl-2-(2-phenylethyl)-4,5-dihydro-1H-imidazole] was tested. Which IC50 did it give?
A: Its IC50 is 77 nM.

Q: For `Fc1cccc(CC2=N[C@H](c3ccccc3)[C@H](c3ccccc3)N2)c1` [cis-4,5-diphenyl-2-(3-fluorobenzyl)-4,5-dihydro-1H-imidazole], which IC50 is on record?
A: Its IC50 is 80 nM.

Same assay, conditions: dye uptake through P2X7, U373 cells, 300 μM BzATP, 5 μM YO-PRO-1, test compounds 30 nM to 3 μM; read-out: IC50

Q: With `Cc1ccc([C@H]2NC(NCc3ccc(F)cc3)=N[C@H]2c2ccc(C)cc2)cc1` [[cis-4,5-bis-(4-Methylphenyl)-4,5-dihydro-1H-imidazol-2-yl]-(4-fluorobenzyl)amine hydrochloride] as the molecule, how does the IC50 read?
A: The IC50 was 287 nM.

Q: Which IC50 does the source give for `Cc1ccc([C@H]2NC(NCc3ccccc3)=N[C@H]2c2ccc(C)cc2)cc1` [[cis-4,5-bis-(4-Methylphenyl)-4,5-dihydro-1H-imidazol-2-yl]-benzylamine hydrochloride] here?
A: The IC50 was 275 nM.

Q: How did the IC50 turn out when `Fc1cccc([C@H]2NC(CCc3ccccc3)=N[C@H]2c2cccc(F)c2)c1` [cis-4,5-bis(3-fluorophenyl)-2-(2-phenylethyl)-4,5-dihydro-1H-imidazole] was run?
A: Its IC50 is 146 nM.

Q: Which IC50 does the source give for `Fc1ccc([C@H]2NC(CCc3ccccc3)=N[C@H]2c2ccc(F)cc2)cc1` [cis-4,5-bis(4-fluorophenyl)-2-(2-phenylethyl)-4,5-dihydro-1H-imidazole] here?
A: Its IC50 is 277 nM.

Q: With `Fc1ccc(CNC2=N[C@@H](c3ccccc3)[C@@H](c3ccccc3)N2)c(F)c1` [cis-4,5-diphenyl-2-(2,4-difluorobenzyl)amino-4,5-dihydro-1H-imidazole] as the molecule, how does the IC50 read?
A: Its IC50 is 289 nM.

Q: How did the IC50 turn out when `Cc1ccccc1CCC1=N[C@H](c2ccccc2)[C@H](c2ccccc2)N1` [cis-4,5-diphenyl-2-(2-(2-methylphenyl)ethyl)-4,5-dihydro-1H-imidazole] was run?
A: The IC50 was 42 nM.

Q: How did the IC50 turn out when `Brc1ccccc1CC1=N[C@@H](c2ccccc2)[C@@H](c2ccccc2)N1` [cis-4,5-diphenyl-2-(2-bromobenzyl)-4,5-dihydro-1H-imidazole] was run?
A: The IC50 was 321 nM.

Q: Which IC50 does the source give for `Brc1ccccc1CNC1=N[C@@H](c2ccccc2)[C@@H](c2ccccc2)N1` [cis-4,5-diphenyl-2-(2-bromobenzyl)amino-4,5-dihydro-1H-imidazole] here?
A: The IC50 was 503 nM.

Q: How did the IC50 turn out when `Brc1ccccc1CSC1=N[C@@H](c2ccccc2)[C@@H](c2ccccc2)N1` [cis-4,5-diphenyl-2-(2-bromobenzyl)thio-4,5-dihydro-1H-imidazole] was run?
A: Its IC50 is 521 nM.

Q: How did the IC50 turn out when `Fc1ccc(CNC2=N[C@@H](c3ccccc3)[C@@H](c3ccccc3)N2)c(Cl)c1` [cis-4,5-diphenyl-2-(2-chloro-4-fluorobenzyl)amino-4,5-dihydro-1H-imidazole] was run?
A: Its IC50 is 247 nM.

Q: How did the IC50 turn out when `Clc1ccccc1CC1=N[C@H](c2ccccc2)[C@H](c2ccccc2)N1` [cis-4,5-diphenyl-2-(2-chlorobenzyl)-4,5-dihydro-1H-imidazole] was run?
A: The IC50 was 163 nM and 160 nM.

Q: How did the IC50 turn out when `Clc1ccccc1CNC1=N[C@@H](c2ccccc2)[C@@H](c2ccccc2)N1` [cis-4,5-diphenyl-2-(2-chlorobenzyl)amino-4,5-dihydro-1H-imidazole] was run?
A: The IC50 was 587 nM.

Q: Which IC50 does the source give for `Clc1ccccc1CSC1=N[C@@H](c2ccccc2)[C@@H](c2ccccc2)N1` [cis-4,5-diphenyl-2-(2-chlorobenzyl)thio-4,5-dihydro-1H-imidazole] here?
A: Its IC50 is 630 nM.

Q: For `Fc1ccccc1CC1=N[C@H](c2ccccc2)[C@H](c2ccccc2)N1` [cis-4,5-diphenyl-2-(2-fluorobenzyl)-4,5-dihydro-1H-imidazole], which IC50 is on record?
A: Its IC50 is 577 nM.

Q: For `Fc1ccccc1CNC1=N[C@@H](c2ccccc2)[C@@H](c2ccccc2)N1` [cis-4,5-diphenyl-2-(2-fluorobenzyl)amino-4,5-dihydro-1H-imidazole], which IC50 is on record?
A: Its IC50 is 409 nM.

Q: Which IC50 does the source give for `Fc1ccccc1CSC1=N[C@@H](c2ccccc2)[C@@H](c2ccccc2)N1` [cis-4,5-diphenyl-2-(2-fluorobenzyl)thio-4,5-dihydro-1H-imidazole] here?
A: The IC50 was 819 nM.

Q: Which IC50 does the source give for `Ic1ccccc1CSC1=N[C@@H](c2ccccc2)[C@@H](c2ccccc2)N1` [cis-4,5-diphenyl-2-(2-iodobenzyl)thio-4,5-dihydro-1H-imidazole] here?
A: Its IC50 is 647 nM.

Q: Which IC50 does the source give for `COc1ccccc1CNC1=N[C@@H](c2ccccc2)[C@@H](c2ccccc2)N1` [cis-4,5-diphenyl-2-(2-methoxybenzyl)amino-4,5-dihydro-1H-imidazole] here?
A: The IC50 was 409 nM.

Q: With `Cc1ccccc1CNC1=N[C@@H](c2ccccc2)[C@@H](c2ccccc2)N1` [cis-4,5-diphenyl-2-(2-methylbenzyl)amino-4,5-dihydro-1H-imidazole] as the molecule, how does the IC50 read?
A: The IC50 was 243 nM.

Q: With `Cc1ccccc1CSC1=N[C@@H](c2ccccc2)[C@@H](c2ccccc2)N1` [cis-4,5-diphenyl-2-(2-methylbenzyl)thio-4,5-dihydro-1H-imidazole] as the molecule, how does the IC50 read?
A: The IC50 was 449 nM.

Q: With `Clc1ccc(CNC2=N[C@@H](c3ccccc3)[C@@H](c3ccccc3)N2)cc1Cl` [cis-4,5-diphenyl-2-(3,4-dichlorobenzyl)amino-4,5-dihydro-1H-imidazole] as the molecule, how does the IC50 read?
A: The IC50 was 307 nM.

Q: `Brc1cccc(CNC2=N[C@@H](c3ccccc3)[C@@H](c3ccccc3)N2)c1` [cis-4,5-diphenyl-2-(3-bromobenzyl)amino-4,5-dihydro-1H-imidazole] was tested. Which IC50 did it give?
A: Its IC50 is 225 nM.

Q: With `Clc1cccc(CC2=N[C@@H](c3ccccc3)[C@@H](c3ccccc3)N2)c1` [cis-4,5-diphenyl-2-(3-chlorobenzyl)-4,5-dihydro-1H-imidazole] as the molecule, how does the IC50 read?
A: The IC50 was 34 nM.

Q: `Clc1cccc(CNC2=N[C@@H](c3ccccc3)[C@@H](c3ccccc3)N2)c1` [cis-4,5-diphenyl-2-(3-chlorobenzyl)amino-4,5-dihydro-1H-imidazole] was tested. Which IC50 did it give?
A: The IC50 was 164 nM.

Q: How did the IC50 turn out when `Clc1cccc(CSC2=N[C@@H](c3ccccc3)[C@@H](c3ccccc3)N2)c1` [cis-4,5-diphenyl-2-(3-chlorobenzyl)thio-4,5-dihydro-1H-imidazole] was run?
A: Its IC50 is 634 nM.

Q: How did the IC50 turn out when `Fc1cccc(CC2=N[C@H](c3ccccc3)[C@H](c3ccccc3)N2)c1` [cis-4,5-diphenyl-2-(3-fluorobenzyl)-4,5-dihydro-1H-imidazole] was run?
A: The IC50 was 84 nM.

Q: `Fc1cccc(CSC2=N[C@@H](c3ccccc3)[C@@H](c3ccccc3)N2)c1` [cis-4,5-diphenyl-2-(3-fluorobenzyl)thio-4,5-dihydro-1H-imidazole] was tested. Which IC50 did it give?
A: The IC50 was 240 nM.

Q: Which IC50 does the source give for `COc1cccc(CNC2=N[C@@H](c3ccccc3)[C@@H](c3ccccc3)N2)c1` [cis-4,5-diphenyl-2-(3-methoxybenzyl)amino-4,5-dihydro-1H-imidazole] here?
A: Its IC50 is 386 nM.

Q: With `Cc1cccc(CC2=N[C@@H](c3ccccc3)[C@@H](c3ccccc3)N2)c1` [cis-4,5-diphenyl-2-(3-methylbenzyl)-4,5-dihydro-1H-imidazole] as the molecule, how does the IC50 read?
A: The IC50 was 376 nM.

Q: `Cc1cccc(CNC2=N[C@@H](c3ccccc3)[C@@H](c3ccccc3)N2)c1` [cis-4,5-diphenyl-2-(3-methylbenzyl)amino-4,5-dihydro-1H-imidazole] was tested. Which IC50 did it give?
A: Its IC50 is 187 nM.

Q: How did the IC50 turn out when `Cc1cccc(CSC2=N[C@@H](c3ccccc3)[C@@H](c3ccccc3)N2)c1` [cis-4,5-diphenyl-2-(3-methylbenzyl)thio-4,5-dihydro-1H-imidazole] was run?
A: Its IC50 is 722 nM.

Q: How did the IC50 turn out when `Clc1ccc(CC2=N[C@@H](c3ccccc3)[C@@H](c3ccccc3)N2)cc1` [cis-4,5-diphenyl-2-(4-chlorobenzyl)-4,5-dihydro-1H-imidazole] was run?
A: The IC50 was 269 nM and 270 nM.

Q: Which IC50 does the source give for `Clc1ccc(CNC2=N[C@@H](c3ccccc3)[C@@H](c3ccccc3)N2)cc1` [cis-4,5-diphenyl-2-(4-chlorobenzyl)amino-4,5-dihydro-1H-imidazole] here?
A: The IC50 was 471 nM.

Q: `Fc1ccc(CC2=N[C@H](c3ccccc3)[C@H](c3ccccc3)N2)cc1` [cis-4,5-diphenyl-2-(4-fluorobenzyl)-4,5-dihydro-1H-imidazole] was tested. Which IC50 did it give?
A: The IC50 was 46 nM.

Q: For `Fc1ccc(CSC2=N[C@@H](c3ccccc3)[C@@H](c3ccccc3)N2)cc1` [cis-4,5-diphenyl-2-(4-fluorobenzyl)thio-4,5-dihydro-1H-imidazole], which IC50 is on record?
A: Its IC50 is 300 nM.

Q: How did the IC50 turn out when `Cc1ccc(CC2=N[C@H](c3ccccc3)[C@H](c3ccccc3)N2)cc1` [cis-4,5-diphenyl-2-(4-methylbenzyl)-4,5-dihydro-1H-imidazole] was run?
A: Its IC50 is 83 nM and 80 nM.

Q: Which IC50 does the source give for `COC(C1=N[C@@H](c2ccccc2)[C@@H](c2ccccc2)N1)c1ccccc1` (stereo partly drawn) [cis-4,5-diphenyl-2-(methoxy-phenyl-methyl)-4,5-dihydro-1H-imidazole] here?
A: The IC50 was 101 nM.

Q: How did the IC50 turn out when `c1ccc([C@H]2NC(CCc3ccccn3)=N[C@H]2c2ccccc2)cc1` [cis-4,5-diphenyl-2-[2-(2-pyridyl)ethyl)-4,5-dihydro-1H-imidazole] was run?
A: The IC50 was 720 nM.

Q: For `Fc1ccc(CCNC2=N[C@@H](c3ccccc3)[C@@H](c3ccccc3)N2)cc1` [cis-4,5-diphenyl-2-[2-(4-fluorophenyl)ethylamino]-4,5-dihydro-1H-imidazole], which IC50 is on record?
A: The IC50 was 331 nM.

Q: How did the IC50 turn out when `c1ccc(CCOCC2=N[C@@H](c3ccccc3)[C@@H](c3ccccc3)N2)cc1` [cis-4,5-diphenyl-2-[(2-phenethyloxy)methyl]-4,5-dihydro-1H-imidazole] was run?
A: The IC50 was 768 nM.

Q: For `c1ccc(CCNC2=N[C@@H](c3ccccc3)[C@@H](c3ccccc3)N2)cc1` [cis-4,5-diphenyl-2-[(2-phenyl)ethyl]amino-4,5-dihydro-1H-imidazole], which IC50 is on record?
A: The IC50 was 113 nM.
